# Data taken from ChEMBL document CHEMBL4476874, “Compounds for the modulation of myc activity” (2018).
# pIC50: −log10 of the molar value.
# Tested on: NCI-H2171
# Assay: Antiproliferative activity against human NCI-H2171 cells after 72 hrs by ATPlite assay
# Format: functional, cell-based
# Details: NCI-H2171, 72 h
row,pIC50,SMILES
1,> 6.52,CC(C)NCCC(=O)Nc1sc2c(c1-c1nc3cc(SC4CCCC4)ccc3s1)CCNC2
2,> 6.52,O=C(CCNC1CC1)Nc1sc2c(c1-c1nc3ccccc3s1)CCNC2
3,> 6.52,CCN(CC)CCC(=O)Nc1sc2c(c1-c1nc3ccccc3s1)CCNC2
4,> 6.52,COCCNCCC(=O)Nc1sc2c(c1-c1nc3cc(-c4ccc(C)nc4)ccc3s1)CCNC2
5,> 6.52,CCc1cccc2sc(-c3c(NC(=O)CCNCCOC)sc4c3CCNC4)nc12
6,< 5.00,CC(C)NCCC(=O)Nc1sc2c(c1-c1nc3cc(S(C)(=O)=O)ccc3s1)CCNC2
7,> 6.52,CC(C)NCCC(=O)Nc1sc2c(c1-c1nc3cc(S(=O)(=O)c4ccccc4)ccc3s1)CCNC2
8,> 6.52,COCCNCCC(=O)Nc1sc2c(c1-c1nc3c(N4CC(O)C4)cccc3s1)CCNC2
9,6.00 to 6.52,COCCNCCC(=O)Nc1sc2c(c1-c1nc3c(N4CCOCC4)cccc3s1)CCNC2
10,> 6.52,O=C(C[C@H]1CCCN1)Nc1sc2c(c1-c1nc3ccccc3s1)CCNC2
11,> 6.52,COCCNCCC(=O)Nc1sc2c(c1-c1nc3cc(OC4CCOCC4)ccc3s1)CCNC2
12,6.00 to 6.52,CC(C)NCCC(=O)Nc1sc2c(c1-c1nc3cc(Sc4ccccc4)ccc3s1)CCNC2
13,6.00 to 6.52,CC(C)NCCC(=O)Nc1sc2c(c1-c1nc3cc(O)ccc3s1)CCNC2
14,> 6.52,CSc1cccc2sc(-c3c(NC(=O)CCNC(C)C)sc4c3CCNC4)nc12
15,> 6.52,COCCNCCC(=O)Nc1sc2c(c1-c1nc3cc(-c4ccc(C(F)(F)F)nc4)ccc3s1)CCNC2
16,> 6.52,CC(C)NCCC(=O)Nc1sc2c(c1-c1nc3cc(C4=CCN(S(=O)(=O)N(C)C)CC4)ccc3s1)CCNC2
17,> 6.52,CC(=O)Nc1sc2c(c1-c1nc3cc(-c4cnn(C)c4)ccc3s1)CCNC2
18,> 6.52,O=C(C[C@@H]1CCCN1)Nc1sc2c(c1-c1nc3ccccc3s1)CCNC2
19,> 6.52,COCCNCCC(=O)Nc1sc2c(c1-c1nc3cc(-c4ccc(OC)nc4)ccc3s1)CCNC2

# The next lines start with the compound.
row,SMILES,pIC50
1,CSc1ccc2sc(-c3c(NC(=O)CCNC(C)C)sc4c3CCNC4)nc2c1,> 6.52
2,COCCNCCC(=O)Nc1sc2c(c1-c1nc3cc(-c4cnccc4C)ccc3s1)CCNC2,> 6.52
3,CC(=O)Nc1sc2c(c1-c1nc3ccc(-c4cnn(C)c4)cc3s1)CCNC2,6.00 to 6.52
4,COCCNCCC(=O)Nc1sc2c(c1-c1nc3cc(-c4ccnn4C)ccc3s1)CCNC2,> 6.52
5,CC(=O)Nc1sc2c(c1-c1nc3cc(-c4ccncc4)ccc3s1)CCNC2,> 6.52
6,CC(C)NCCC(=O)Nc1sc2c(c1-c1nc3cc(Sc4ccccn4)ccc3s1)CCNC2,> 6.52
7,COCCNCCC(=O)Nc1sc2c(c1-c1nc3cc(-c4cncc(C#N)c4)ccc3s1)CCNC2,6.00 to 6.52
8,COCCNCCC(=O)Nc1sc2c(c1-c1nc3c(Nc4ccccc4)cccc3s1)CCNC2,6.00 to 6.52
9,CC(=O)Nc1cccc2sc(-c3c(NC(=O)CCNC(C)C)sc4c3CCNC4)nc12,> 6.52
10,O=C(CCNC1C2CC1C2)Nc1sc2c(c1-c1nc3ccccc3s1)CCNC2 (configuration not stated),6.00 to 6.52
11,COCCNCCC(=O)Nc1sc2c(c1-c1nc3c(NS(C)(=O)=O)cccc3s1)CCNC2,> 6.52
12,Cc1cc(-c2ccc3sc(-c4c(NC(=O)CCNC(C)C)sc5c4CCNC5)nc3c2)cc(C)n1,> 6.52
13,CC(C)NCCC(=O)Nc1sc2c(c1-c1nc3cc(S(=O)(=O)C4CCCC4)ccc3s1)CCNC2,> 6.52
14,CC(C)NCCC(=O)Nc1sc2c(c1-c1nc3cc(C4CC4)ccc3s1)CCNC2,> 6.52
15,COCCNCCC(=O)Nc1sc2c(c1-c1nc3ccccc3s1)CCN[C@@H]2C,> 6.52
16,COCCNCCC(=O)Nc1sc2c(c1-c1nc3c(-n4ccnc4C)cccc3s1)CCNC2,> 6.52
17,O=C(CCN1CCOCC1)Nc1sc2c(c1-c1nc3ccccc3s1)CCNC2,6.00 to 6.52

# Target: Myc proto-oncogene protein (Homo sapiens, UniProt P01106)
# Assay: Inhibition of human c-Myc assessed as reduction in c-Myc/Max/Ebox DNA complex formation using pre-formed complex of c-Myc and biotinylated DNA containing single Ebox-sequence followed by compound addition and further addition of his6-tagged c-Max and incubated for 2 hrs by AlphaScreen assay
# Details: not given
# Chain of Myc proto-oncogene protein (P01106 whole entry): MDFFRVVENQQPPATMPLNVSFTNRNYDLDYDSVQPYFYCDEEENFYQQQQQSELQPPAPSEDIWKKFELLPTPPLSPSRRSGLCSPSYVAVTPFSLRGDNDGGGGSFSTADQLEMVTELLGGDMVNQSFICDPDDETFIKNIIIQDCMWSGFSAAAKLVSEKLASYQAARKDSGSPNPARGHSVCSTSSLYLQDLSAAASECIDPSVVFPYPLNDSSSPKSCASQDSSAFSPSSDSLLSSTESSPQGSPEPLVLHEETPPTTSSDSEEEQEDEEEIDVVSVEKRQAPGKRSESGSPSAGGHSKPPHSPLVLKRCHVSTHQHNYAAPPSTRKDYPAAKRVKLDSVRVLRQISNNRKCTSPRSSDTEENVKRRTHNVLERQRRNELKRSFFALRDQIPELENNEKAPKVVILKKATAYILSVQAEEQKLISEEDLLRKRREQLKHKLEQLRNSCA
row,pIC50,SMILES
1,< 5.00,CC(C)NCCC(=O)Nc1sc2c(c1-c1nc3cc(SC4CCCC4)ccc3s1)CCNC2
2,6.00 to 6.52,O=C(CCNC1CC1)Nc1sc2c(c1-c1nc3ccccc3s1)CCNC2
3,6.00 to 6.52,CCN(CC)CCC(=O)Nc1sc2c(c1-c1nc3ccccc3s1)CCNC2
4,6.00 to 6.52,COCCNCCC(=O)Nc1sc2c(c1-c1nc3cc(-c4ccc(C)nc4)ccc3s1)CCNC2
5,> 6.52,CCc1cccc2sc(-c3c(NC(=O)CCNCCOC)sc4c3CCNC4)nc12
6,> 6.52,CC(C)NCCC(=O)Nc1sc2c(c1-c1nc3cc(S(C)(=O)=O)ccc3s1)CCNC2
7,6.00 to 6.52,CC(C)NCCC(=O)Nc1sc2c(c1-c1nc3cc(S(=O)(=O)c4ccccc4)ccc3s1)CCNC2
8,> 6.52,COCCNCCC(=O)Nc1sc2c(c1-c1nc3c(N4CC(O)C4)cccc3s1)CCNC2
9,< 5.00,COCCNCCC(=O)Nc1sc2c(c1-c1nc3c(N4CCOCC4)cccc3s1)CCNC2
10,6.00 to 6.52,O=C(C[C@H]1CCCN1)Nc1sc2c(c1-c1nc3ccccc3s1)CCNC2
11,6.00 to 6.52,COCCNCCC(=O)Nc1sc2c(c1-c1nc3cc(OC4CCOCC4)ccc3s1)CCNC2
12,< 5.00,CC(C)NCCC(=O)Nc1sc2c(c1-c1nc3cc(Sc4ccccc4)ccc3s1)CCNC2
13,> 6.52,CC(C)NCCC(=O)Nc1sc2c(c1-c1nc3cc(O)ccc3s1)CCNC2
14,6.00 to 6.52,CSc1cccc2sc(-c3c(NC(=O)CCNC(C)C)sc4c3CCNC4)nc12
15,5.00 to 6.00,COCCNCCC(=O)Nc1sc2c(c1-c1nc3cc(-c4ccc(C(F)(F)F)nc4)ccc3s1)CCNC2
16,6.00 to 6.52,CC(C)NCCC(=O)Nc1sc2c(c1-c1nc3cc(C4=CCN(S(=O)(=O)N(C)C)CC4)ccc3s1)CCNC2
17,6.00 to 6.52,CC(=O)Nc1sc2c(c1-c1nc3cc(-c4cnn(C)c4)ccc3s1)CCNC2
18,5.00 to 6.00,O=C(C[C@@H]1CCCN1)Nc1sc2c(c1-c1nc3ccccc3s1)CCNC2
19,5.00 to 6.00,COCCNCCC(=O)Nc1sc2c(c1-c1nc3cc(-c4ccc(OC)nc4)ccc3s1)CCNC2

# Second part, the compound before the results:
row,SMILES,pIC50
1,CSc1ccc2sc(-c3c(NC(=O)CCNC(C)C)sc4c3CCNC4)nc2c1,6.00 to 6.52
2,COCCNCCC(=O)Nc1sc2c(c1-c1nc3cc(-c4cnccc4C)ccc3s1)CCNC2,5.00 to 6.00
3,CC(=O)Nc1sc2c(c1-c1nc3ccc(-c4cnn(C)c4)cc3s1)CCNC2,6.00 to 6.52
4,COCCNCCC(=O)Nc1sc2c(c1-c1nc3cc(-c4ccnn4C)ccc3s1)CCNC2,6.00 to 6.52
5,CC(=O)Nc1sc2c(c1-c1nc3cc(-c4ccncc4)ccc3s1)CCNC2,6.00 to 6.52
6,CC(C)NCCC(=O)Nc1sc2c(c1-c1nc3cc(Sc4ccccn4)ccc3s1)CCNC2,5.00 to 6.00
7,COCCNCCC(=O)Nc1sc2c(c1-c1nc3cc(-c4cncc(C#N)c4)ccc3s1)CCNC2,6.00 to 6.52
8,COCCNCCC(=O)Nc1sc2c(c1-c1nc3c(Nc4ccccc4)cccc3s1)CCNC2,< 5.00
9,CC(=O)Nc1cccc2sc(-c3c(NC(=O)CCNC(C)C)sc4c3CCNC4)nc12,6.00 to 6.52
10,O=C(CCNC1C2CC1C2)Nc1sc2c(c1-c1nc3ccccc3s1)CCNC2 (configuration not stated),5.00 to 6.00
11,COCCNCCC(=O)Nc1sc2c(c1-c1nc3c(NS(C)(=O)=O)cccc3s1)CCNC2,5.00 to 6.00
12,Cc1cc(-c2ccc3sc(-c4c(NC(=O)CCNC(C)C)sc5c4CCNC5)nc3c2)cc(C)n1,< 5.00
13,CC(C)NCCC(=O)Nc1sc2c(c1-c1nc3cc(S(=O)(=O)C4CCCC4)ccc3s1)CCNC2,6.00 to 6.52
14,CC(C)NCCC(=O)Nc1sc2c(c1-c1nc3cc(C4CC4)ccc3s1)CCNC2,6.00 to 6.52
15,COCCNCCC(=O)Nc1sc2c(c1-c1nc3ccccc3s1)CCN[C@@H]2C,> 6.52
16,COCCNCCC(=O)Nc1sc2c(c1-c1nc3c(-n4ccnc4C)cccc3s1)CCNC2,6.00 to 6.52
17,O=C(CCN1CCOCC1)Nc1sc2c(c1-c1nc3ccccc3s1)CCNC2,5.00 to 6.00
